Consider 22 molecules from US9434725B2, “5-azaindazole compounds and methods of use” (priority 2012, dated 2016).

pKi: −log10 of the molar value.

Common to all, as to format: biochemical
One assay concerns the target PIM1 (Homo sapiens (Human), UniProt P11309). In words: biochemical. The following applies: 10 μM ATP, 90 min, room temperature; read-out: PIM1 LC3K (KI). Here is the method:
A fluorescent-labeled Pim-specific peptide substrate, was custom synthesized by American Peptide Company (Sunnyvale, Calif.). Reaction Buffer contained 10 mM HEPES, pH 7.2, 10 mM MgCl2, 0.01% Tween 20, 2 mM DTT. Termination Buffer contained 190 mM HEPES, pH 7.2, 0.015% Brij-35, 0.2% Coating Reagent 3 (Caliper Life Sciences, Hopkinton, Mass.), 20 mM EDTA. Separation Buffer contained 100 mM HEPES, pH 7.2, 0.015% Brij-35, 0.1% Coating Reagent 3, 1:200 Coating Reagent 8 (Caliper Life Sciences, Hopkinton, Mass.), 10 mM EDTA and 5% DMSO.
PIM reactions were carried out in a final volume of 10 μL per well in a 384-well plate. […] After 90 minutes of incubation at room temperature, the phosphorylation reaction was stopped by the addition of 10 μL Termination Buffer. The product and substrate in each independent reaction were separated on a 12-sipper microfluidic chip (Caliper Life Sciences, Hopkinton, Mass.) run on a Caliper LC3000® (Caliper Life Sciences, Hopkinton, Mass.). The separation of product and substrate was optimized by choosing voltages and pressure using Caliper's Optimizer software (Hopkinton, Mass.). […] Substrate conversion was calculated from the electropherogram using HTS Well Analyzer software (Caliper Life Sciences, Hopkinton, Mass.). Ki values for the test compound were calculated.

Another assay has as its target PIM2 (Homo sapiens (Human), UniProt Q9P1W9). In words: Pim kinase binding activity, Caliper LC3000 microfluidic peptide phosphorylation assay, PIM2. The following applies: 10 μM ATP, 90 min, room temperature; read-out: PIM2 LC3K (KI). An outline of the steps: (§1)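 Pim-specific fluorescent peptide phosphorylated in 10 mM HEPES pH 7.2, 10 mM MgCl2, 0.01% Tween 20, 2 mM DTT for 90 min at room temperature, then stopped with EDTA. Product and substrate separated by microfluidic mobility shift; Ki derived from substrate conversion.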

The next assay has as its target PIM3 (Homo sapiens (Human), UniProt Q86V86). Briefly: Pim kinase binding activity, Caliper LC3000 microfluidic peptide phosphorylation assay, PIM3. Conditions: 10 μM ATP, 90 min, room temperature; read-out: PIM3 LC3K (KI). In short, it runs like this: as §1

Chain of PIM1 (P11309 whole entry): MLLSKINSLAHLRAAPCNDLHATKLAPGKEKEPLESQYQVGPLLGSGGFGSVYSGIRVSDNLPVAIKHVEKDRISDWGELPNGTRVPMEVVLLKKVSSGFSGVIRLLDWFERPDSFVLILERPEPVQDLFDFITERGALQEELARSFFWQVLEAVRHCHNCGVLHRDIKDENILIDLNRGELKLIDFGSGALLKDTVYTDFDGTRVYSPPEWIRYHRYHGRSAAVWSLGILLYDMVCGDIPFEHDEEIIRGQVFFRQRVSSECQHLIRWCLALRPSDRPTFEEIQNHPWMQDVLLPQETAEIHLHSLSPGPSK
Chain of PIM2 (Q9P1W9 whole entry): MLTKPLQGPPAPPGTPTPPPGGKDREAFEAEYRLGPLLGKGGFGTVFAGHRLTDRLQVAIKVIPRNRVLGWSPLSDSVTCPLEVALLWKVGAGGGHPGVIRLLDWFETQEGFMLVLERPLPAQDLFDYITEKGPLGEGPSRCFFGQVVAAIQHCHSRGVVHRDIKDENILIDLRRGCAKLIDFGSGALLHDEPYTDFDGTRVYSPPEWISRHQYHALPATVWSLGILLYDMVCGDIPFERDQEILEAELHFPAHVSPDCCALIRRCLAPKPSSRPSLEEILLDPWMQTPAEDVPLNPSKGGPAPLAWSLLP

Take `Cc1cncc(-c2cc3c(cn2)cnn3-c2cccc(N3CC4(CCNC4)C3)n2)n1` [Compound 217, 1-[6-(2 7-diazaspiro[3.4]octan-2-yl)-2-pyridyl]-6-(6-methylpyrazin-2-yl)pyrazolo[4,3-c]pyridine]: the results for the pKi at PIM1, at PIM2 and on PIM3 were 8.93, 7.82 and 9.59, respectively.
Take `Cc1cncc(-c2cc3c(cn2)cnn3-c2ccc(C(F)(F)F)c(N3CCNCC(O)C3)n2)n1` (stereo not drawn) [Compound 219, 1-(6-(6-(6-methylpyrazin-2-yl)-1H-pyrazolo[4,3-c]pyridin-1-yl)-3-(trifluoromethyl)pyridin-2-yl)-1,4-diazepan-6-ol]: the pKi was 9.36 on PIM1, 7.90 on PIM2 and 9.58 at PIM3.
As to `Cc1cncc(-c2cc3c(cn2)cnn3-c2ccc(C)c(N3C[C@@H](N)CCC3=O)n2)n1` [Compound 221, (5S)-5-amino-1-[3-methyl-6-[6-(6-methylpyrazin-2-yl)pyrazolo[4,3-c]pyridin-1-yl]-2-pyridyl]piperidin-2-one], the pKi on PIM1 is 7.58; on PIM2, 6.13; on PIM3, 7.63.
Consider `COc1ncc(-n2ncc3cnc(-c4cncc(C)n4)cc32)nc1N1CCC[C@H](N)C1` [Compound 222, (3S)-1-[3-methoxy-6-[6-(6-methylpyrazin-2-yl)pyrazolo[4,3-c]pyridin-1-yl]pyrazin-2-yl]piperidin-3-amine], for which the negative-log Ki (pKi) was 9.90 at PIM1, 9.01 at PIM2 and 10.14 on PIM3.
On the same counts, the results for `Cc1cncc(-c2cc3c(cn2)cnn3-c2cnc(O)c(N3CCC[C@H](N)C3)n2)n1` [Compound 223, 3-[(3S)-3-amino-1-piperidyl]-5-[6-(6-methylpyrazin-2-yl)pyrazolo[4 3-c]pyridin-1-yl]pyrazin-2-ol] are 8.63, 8.15 and 8.74.
For the molecule `Cc1cncc(-c2cc3c(cn2)cnn3-c2cnc(Cl)c(N3CCC[C@H](N)C3)n2)n1` [Compound 226, (3S)-1-[3-chloro-6-[6-(6-methylpyrazin-2-yl)pyrazolo[4,3-c]pyridin-1-yl]pyrazin-2-yl]piperidin-3-amine], the values for the pKi on PIM1, at PIM2 and on PIM3 were 8.78, 7.98 and 9.05, respectively.
Regarding `Cn1cc(-c2cc3c(cn2)cnn3-c2cccc(N3CCNC[C@@H](O)C3)n2)cn1` [Compound 229, (R)-1-(6-(6-(1-Methyl-1H-pyrazol-4-yl)-1H-pyrazolo[4,3-c]pyridin-1-yl)pyridin-2-yl)-1,4-diazepan-6-ol], the figures for the pKi at PIM1, on PIM2 and on PIM3 were 9.50, 8.03 and 9.88, respectively.
In the case of `Cn1cc(-c2cc3c(cn2)cnn3-c2cccc(C3(O)CCCNCC3)n2)cn1` (stereo not drawn) [Compound 230, 4-(6-(6-(1-Methyl-1H-pyrazol-4-yl)-1H-pyrazolo[4,3-c]pyridin-1-yl)pyridin-2-yl)azepan-4-ol], the pKi is 8.30 at PIM1, 7.20 on PIM2 and 8.36 on PIM3.
Take `Cc1cncc(-c2cc3c(cn2)cnn3-c2cccc(N3CC(O)C(O)C3)n2)n1` (stereo not drawn) [Compound 232, 1-[6-[6-(6-methylpyrazin-2-yl)pyrazolo[4,3-c]pyridin-1-yl]-2-pyridyl]pyrrolidine-3 4-diol]: the pKi is 8.92 on PIM1, 7.68 on PIM2 and 9.08 at PIM3.
On to `Cc1cncc(-c2cc3c(cn2)cnn3-c2cc(N3CCC[C@H](N)C3)c(=O)n(C)c2)n1` [Compound 233, (S)-3-(3-aminopiperidin-1-yl)-1-methyl-5-(6-(6-methylpyrazin-2-yl)-1H-pyrazolo[4,3-c]pyridin-1-yl)pyridin-2(1H)-one], for which the pKi was 6.28 on PIM1, 5.64 at PIM2 and 6.04 on PIM3.
On the same counts, the results for `COc1ccc(-n2ncc3cnc(-c4cnn(CC(F)(F)F)c4)cc32)nc1N1CCNC[C@@H](O)C1` [Compound 234, (R)-1-(3-Methoxy-6-(6-(1-(2,2,2-trifluoroethyl)-1H-pyrazol-4-yl)-1H-pyrazolo-[4,3-c]pyridin-1-yl)pyridin-2-yl)-1,4-diazepan-6-ol] are 9.97, 8.65 and 9.63.
`Cn1cc(-c2cc3c(cn2)cnn3-c2cccc(C3CCCNCC3)n2)cn1` (stereo not drawn) [Compound 235, 1-(6-(azepan-4-yl)pyridin-2-yl)-6-(1-methyl-1H-pyrazol-4-yl)-1H-pyrazolo[4,3-c]pyridine]: the pKi at PIM1 is 8.81; at PIM2, 7.78; on PIM3 it was 9.09.
For `Cn1cc(-c2cc3c(cn2)cnn3-c2cccc(C3(F)CCCNCC3)n2)cn1` (stereo not drawn) [Compound 236, 1-(6-(4-Fluoroazepan-4-yl)pyridin-2-yl)-6-(1-methyl-1H-pyrazol-4-yl)-1H-pyrazolo[4,3-c]pyridine], in that order: 9.15, 8.07 and 9.43.
On the same counts, the results for `COc1ccc(-n2ncc3cnc(-c4cnn(CC(F)(F)F)c4)cc32)nc1N1CCNC[C@H](O)C1` [Compound 237, (S)-1-(3-Methoxy-6-(6-(1-(2,2,2-trifluoroethyl)-1H-pyrazol-4-yl)-1H-pyrazolo-[4,3-c]pyridin-1-yl)pyridin-2-yl)-1,4-diazepan-6-ol] are 9.51, 8.00 and 9.23.
Regarding `Cc1cncc(-c2cc3c(cn2)cnn3-c2cnc(C3CC3)c(N3CCC[C@H](N)C3)n2)n1` [Compound 238, (3S)-1-[3-cyclopropyl-6-[6-(6-methylpyrazin-2-yl)pyrazolo[4,3-c]pyridin-1-yl]pyrazin-2-yl]piperidin-3-amine], the pKi at PIM1 is 10.59; at PIM2, 9.59; at PIM3, 10.49.
For `Cc1cncc(-c2cc3c(cn2)cnn3-c2cccc(N3CCCN(C4COC4)CC3)n2)n1` [Compound 240, 6-(6-methylpyrazin-2-yl)-1-(6-(4-(oxetan-3-yl)-1,4-diazepan-1-yl)pyridin-2-yl)-1H-pyrazolo[4,3-c]pyridine], in that order: 8.82, 7.50 and 8.69.
On the same counts, the results for `Cc1cncc(-c2cc3c(cn2)cnn3-c2cn(C)c(=O)c(N3CCC[C@H](N)C3)n2)n1` [Compound 241, (S)-3-(3-aminopiperidin-1-yl)-1-methyl-5-(6-(6-methylpyrazin-2-yl)-1H-pyrazolo[4,3-c]pyridin-1-yl)pyrazin-2(1H)-one] are 8.45, 7.34 and 9.12.
For `Cn1cc(-c2cc3c(cn2)cnn3-c2cn(C)c(=O)c(N3CCC[C@H](N)C3)n2)cn1` [Compound 242, (S)-3-(3-Aminopiperidin-1-yl)-1-methyl-5-(6-(1-methyl-1H-pyrazol-4-yl)-1H-pyrazolo[4,3-c]pyridin-1-yl)pyrazin-2(1H)-one], in that order: 6.89, 5.80 and 7.37.
For `Cn1cc(-c2cc3c(cn2)cnn3-c2cn(C)c(=O)c(N3CCC[C@@H](N)C3)n2)cn1` [Compound 243, (R)-3-(3-aminopiperidin-1-yl)-1-methyl-5-(6-(1-methyl-1H-pyrazol-4-yl)-1H-pyrazolo[4,3-c]pyridin-1-yl)pyrazin-2(1H)-one], the pKi on PIM1 was 7.24; at PIM2, 6.28; on PIM3 it was 8.06.
`Cc1cncc(-c2cc3c(cn2)cnn3-c2ccc(C)c(N3CCC[C@H](N)C3=O)n2)n1` [Compound 245, (3S)-3-amino-1-[3-methyl-6-[6-(6-methylpyrazin-2-yl)pyrazolo[4,3-c]pyridin-1-yl]-2-pyridyl]piperidin-2-one]: the pKi at PIM1 is 8.25; at PIM2, 7.28; at PIM3, 8.67.
Take `C[C@]1(O)CNCCN(c2cccc(-n3ncc4cnc(-c5cnn(CC(F)(F)F)c5)cc43)n2)C1` [Compound 248, (S)-6-Methyl-1-(6-(6-(1-(2,2,2-trifluoroethyl)-1H-pyrazol-4-yl)-1H-pyrazolo[4,3-c]-pyridin-1-yl)pyridin-2-yl)-1,4-diazepan-6-ol]: the pKi on PIM1 was 8.79; on PIM2 it was 7.66; at PIM3, 8.47.
`C[C@@]1(O)CNCCN(c2cccc(-n3ncc4cnc(-c5cnn(CC(F)(F)F)c5)cc43)n2)C1` [Compound 249, (R)-6-Methyl-1-(6-(6-(1-(2,2,2-trifluoroethyl)-1H-pyrazol-4-yl)-1H-pyrazolo[4,3-c]-pyridin-1-yl)pyridin-2-yl)-1,4-diazepan-6-ol]: the results for the pKi at PIM1, at PIM2 and on PIM3 were 8.67, 7.77 and 8.51, respectively.

The term pKi denotes the negative decadic logarithm of the Ki, by convention in mol/L.
